Results as given in ChEMBL document CHEMBL1145360, “Highly potent growth hormone secretagogues” (Bioorg Med Chem Lett, 2007).

What was measured:
[1] = Stimulation of growth hormone in rat pituitary cell; format: functional, cell-based; conditions: pituitary gland cell
Canis familiaris [2] = test: Effect on growth hormone release in Beagle dog assessed as increase of GH level at 0.25 mg/kg, po relative to basal level; format: functional, Canis lupus familiaris
Canis familiaris [3] = test: Effect on growth hormone release in Beagle dog assessed as increase of GH level at 0.50 mg/kg, po relative to basal level; format: functional, Canis lupus familiaris; conditions: dose 0.5 mg/kg
Canis familiaris [4] = test: Effect on growth hormone release in Beagle dog assessed as increase of GH level at 0.01 mg/kg, iv relative to basal level; format: functional, Canis lupus familiaris
Canis familiaris [5] = test: Effect on growth hormone release in Beagle dog assessed as increase of GH level at 0.06 mg/kg, po relative to basal level; format: functional, Canis lupus familiaris

Row | Structure (SMILES) | EC50 [1] | other results
1 | CC(C)(N)C(=O)N[C@H](CCCc1ccccc1)C(=O)N1CCC2(CC1)C[C@@H](C(=O)NCCNS(C)(=O)=O)c1ccccc12 | 0.21 nM | –
2 | CC(C)(N)C(=O)N[C@H](CCCc1ccccc1)C(=O)N1CCC2(CC1)C[C@@H](C(N)=O)c1ccccc12.Cl | 0.09 nM | Fold change (Canis familiaris [2]): 4
3 | CNC(=O)[C@@H]1CC2(CCN(C(=O)[C@@H](CCCc3ccccc3)NC(=O)C(C)(C)N)CC2)c2ccccc21 | 0.4 nM | –
4 | CC(C)(N)C(=O)N[C@H](CCCc1ccccc1)C(=O)N1CCC2(CC1)C[C@@H](C(=O)NCCO)c1ccccc12.Cl | 0.51 nM | Fold change (Canis familiaris [3]): 4
5 | C=CCNC(=O)[C@@H]1CC2(CCN(C(=O)[C@@H](CCCc3ccccc3)NC(=O)C(C)(C)N)CC2)c2ccccc21 | 0.14 nM | –
6 | CC(C)(N)C(=O)N[C@H](CCCc1ccccc1)C(=O)N1CCC2(CC1)C[C@H](C(N)=O)c1ccccc12 | 0.35 nM | –
7 | CC(C)(N)C(=O)N[C@H](CCCc1ccccc1)C(=O)N1CCC2(CC1)C[C@H](C(=O)NCCCCO)c1ccccc12 | 0.73 nM | –
8 | CC(C)(N)C(=O)N[C@H](CCCc1ccccc1)C(=O)N1CCC2(CC1)C[C@@H](C(=O)NCCCCO)c1ccccc12 | 0.44 nM | –
9 | CC(C)(N)C(=O)N[C@H](CCCc1ccccc1)C(=O)N1CCC2(CC1)C[C@H](C(=O)NCCCO)c1ccccc12 | 0.85 nM | –
10 | CCNC(=O)[C@@H]1CC2(CCN(C(=O)[C@@H](CCCc3ccccc3)NC(=O)C(C)(C)N)CC2)c2ccccc21 | 0.9 nM | –
11 | CC(C)(N)C(=O)N[C@H](CCCc1ccccc1)C(=O)N1CCC2(CC1)C[C@@H](C(=O)Nc1ccccc1)c1ccccc12 | 1.2 nM | –
12 | CC(C)NC(=O)[C@@H]1CC2(CCN(C(=O)[C@@H](CCCc3ccccc3)NC(=O)C(C)(C)N)CC2)c2ccccc21 | 0.3 nM | –
13 | CC(C)(N)C(=O)N[C@H](CCCc1ccccc1)C(=O)N1CCC2(CC1)C[C@@H](C(=O)NCCCO)c1ccccc12 | 0.41 nM | –
14 | CC(C)(N)C(=O)N[C@H](CCCc1ccccc1)C(=O)N1CCC2(CC1)C[C@H](C(=O)NCCO)c1ccccc12 | 0.45 nM | –
15 | CCNC(=O)[C@H]1CC2(CCN(C(=O)[C@@H](CCCc3ccccc3)NC(=O)C(C)(C)N)CC2)c2ccccc21 | 2.1 nM | –
16 | CCCNC(=O)[C@@H]1CC2(CCN(C(=O)[C@@H](CCCc3ccccc3)NC(=O)C(C)(C)N)CC2)c2ccccc21.Cl | 0.15 nM | Fold change (Canis familiaris [4]): 4; Fold change (Canis familiaris [5]): 4
17 | CNC(=O)[C@H]1CC2(CCN(C(=O)[C@@H](CCCc3ccccc3)NC(=O)C(C)(C)N)CC2)c2ccccc21 | 3.8 nM | –
18 | CC(C)(N)C(=O)N[C@H](COCc1ccccc1)C(=O)N1CCC2(CC1)CN(S(C)(=O)=O)c1ccccc12 [IBUTAMOREN] | 1.5 nM | –
